{
  "source": "patent US10669238B2",
  "about": "“Irreversible bruton's tyrosine kinase inhibitor” (HEFEI INSTITUTES OF PHYSICAL SCIENCE, CHINESE ACADEMY OF …, priority 2016, dated 2020)",
  "system": "phosphorylation of tyrosine Y223 on Btk",
  "test": "Effects on BTK Y223 and downstream signaling pathway proteins in cells (anti-IgM stimulation)",
  "assay_type": "cell-based, human",
  "details": "Compound 1 in MEC-2, Pfeiffer, Ramos, TMD8, U2932; Compound 35 in MEC-1; 4 hours, then anti-IgM 10 mins",
  "text": "By assaying a number of cellular biochemical and functional endpoints, the properties of the compounds were further characterized. […] In this experiment, PC132765 (purchased from Shanghai Haoyuan Chemexpress Co., Ltd.), CGI11746 (purchased from Shanghai Haoyuan Chemexpress Co., Ltd.) and Compound 6 (prepared herein) were used as control (see FIGS. 2a-2f).\nEffects of the compounds on phosphorylation of BTKY223, BTKY551, PLCγ1Y783, PLCγ2Y759, PLCγ2Y1217, P—NF-κB P65, P-AKT Ser473, Erk Thr202/Tyr204 and the like were determined (FIGS. 2a-2f).",
  "data": [
    {"smiles": "C=CC(=O)Nc1cc(Nc2cc(-c3cccc(NC(=O)c4ccc(C(C)(C)C)cc4)c3C)cn(C)c2=O)ccc1C(=O)N1CCOCC1", "note": "[Compound 1, N-(3-(5-((3-acrylamide-4-(morpholin-4-carbonyl)phenyl)amino)-1-methyl-6-oxo-1,6-dihydropyridin-3-yl)-2-methylphenyl)-4-(tert-butyl)benzamide]", "values": [
      {"measurement": "phosphorylation of tyrosine Y223 on Btk", "result": "selectively and significantly inhibit phosphorylation of tyrosine Y223 on Btk"}
    ]}
  ]
}
